Measurements as given in US20220282271A1, “HERBICIDE RESISTANT PLANTS AND METHODS OF MAKING AND USING” (OFFICE OF INNOVATION ADVANCEMENT AND COMMERCIALIZATION, priority 2019, published 2022).

How the values were obtained:
Senna obtusifolia = experiment: Weed control screen: sicklepod; format: in vivo; settings: 1.0 lb ai/a, applied approximately 3 weeks after emergence, relative to non-treated
Method: (§1) Herbicides were applied at a spray volume of 280 L/ha with no adjuvant added to any herbicide mixture. Weed control was rated on a 0 to 100 percent phytoxicity scale with 0 being no plant injury/phytotoxicity and 100 being complete plant dessication. Twenty-one weeds were evaluated for response to herbicides (Table 3). The weeds selected were a mixture of weeds common in agronomic and horticultural crops. Herbicide was applied to all species approximately 3 weeks after emergence. Plant phytotoxicity rated as percent control relative to the non-treated.

Eleusine indica = experiment: Weed control screen: goosegrass; format: in vivo; settings: 1.0 lb ai/a, applied approximately 3 weeks after emergence, relative to non-treated
Method: as §1

Jaquemontia tamnifolia = experiment: Weed control screen: smallflower morningglory; format: in vivo; settings: 1.0 lb ai/a, applied approximately 3 weeks after emergence, relative to non-treated
Method: as §1

Ipomoea lacunosa = experiment: Weed control screen: pitted morningglory; format: in vivo; settings: 1.0 lb ai/a, applied approximately 3 weeks after emergence, relative to non-treated
Method: as §1

Abutilon theophrasti = experiment: Weed control screen: velvetleaf; format: in vivo; settings: 1.0 lb ai/a, applied approximately 3 weeks after emergence, relative to non-treated
Method: as §1

[1] = system: Twenty-one weeds common in agronomic and horticultural crops; experiment: Weed control screen: summary over the twenty-one weeds; format: in vivo
Method: as §1

Albizia julibrissin = experiment: Weed control screen: silktree; format: in vivo; settings: 1.0 lb ai/a, applied approximately 3 weeks after emergence, relative to non-treated
Method: as §1

Ipomoea hederacea = experiment: Weed control screen: entireleaf morningglory; format: in vivo; settings: 1.0 lb ai/a, applied approximately 3 weeks after emergence, relative to non-treated
Method: as §1

[2] = target: recombinant variant E. indica PPO1 A212T (Eleusine indica, UniProt A0A6G5XNV7, A212T); experiment: In vitro PPO enzyme activity inhibition, variant PPO1 A212T; format: biochemical
Sequence of recombinant variant E. indica PPO1 A212T (A0A6G5XNV7 entry or part of it A212T): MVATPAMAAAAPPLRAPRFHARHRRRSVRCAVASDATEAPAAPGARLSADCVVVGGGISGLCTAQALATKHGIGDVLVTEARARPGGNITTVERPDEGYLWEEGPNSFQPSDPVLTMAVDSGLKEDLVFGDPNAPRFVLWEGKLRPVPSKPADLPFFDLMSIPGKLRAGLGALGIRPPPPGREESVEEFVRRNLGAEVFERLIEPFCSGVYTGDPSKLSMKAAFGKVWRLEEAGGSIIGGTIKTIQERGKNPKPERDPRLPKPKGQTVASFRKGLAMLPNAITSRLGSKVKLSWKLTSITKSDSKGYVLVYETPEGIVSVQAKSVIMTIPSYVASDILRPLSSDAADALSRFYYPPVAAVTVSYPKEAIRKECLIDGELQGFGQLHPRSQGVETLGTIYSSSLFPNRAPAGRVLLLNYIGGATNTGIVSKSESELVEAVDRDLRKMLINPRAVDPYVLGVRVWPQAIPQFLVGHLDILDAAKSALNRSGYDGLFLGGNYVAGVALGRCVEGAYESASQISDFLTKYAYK
Text: (§2) Effects of A212T substitution were studied using the E. indica backbone. The wild-type E. indica PPO1 and the E. indica PPO1 A212T variants were synthesized de novo and subcloned into pRSetB plasmid (Invitrogen, Carlsbad, Calif.). The complete description of expression and purification of E. indica PPO1 and E. indica PPO1 A212T variant proteins were referenced to the method described for PPO2 by Rangani et al. (2019, Frontiers in Plant Sci., 10:568). Six PPO inhibitors, belonging to five different chemical families, were evaluated on the PPO enzyme activity at a concentrations ranging from 5.00×10^−5M to 5.12×10^−12M. Oxadiazon, sulfentrazone, saflufenacil and lactofen are from the class of oxadiazole, triazolinone, pyrimidinedione, and diphenyl ether, respectively. Flumioxazin and trifludimoxazin are from the same chemical family, N-phenylphthalimide. […] The assay was replicated twice.

Amaranthus palmeri = experiment: Weed control screen: glyphosate resistant palmer amaranth; format: in vivo; settings: 1.0 lb ai/a, applied approximately 3 weeks after emergence, relative to non-treated
Method: as §1

Amaranthus hybridus = experiment: Weed control screen: smooth pigweed; format: in vivo; settings: 1.0 lb ai/a, applied approximately 3 weeks after emergence, relative to non-treated
Method: as §1

Sorghum halapense = experiment: Weed control screen: johnsongrass; format: in vivo; settings: 1.0 lb ai/a, applied approximately 3 weeks after emergence, relative to non-treated
Method: as §1

Ipomoea coccinea = experiment: Weed control screen: red morningglory; format: in vivo; settings: 1.0 lb ai/a, applied approximately 3 weeks after emergence, relative to non-treated
Method: as §1

Sesbania exaltata = experiment: Weed control screen: hemp sesbania; format: in vivo; settings: 1.0 lb ai/a, applied approximately 3 weeks after emergence, relative to non-treated
Method: as §1

Sida spinosa = experiment: Weed control screen: prickly sida; format: in vivo; settings: 1.0 lb ai/a, applied approximately 3 weeks after emergence, relative to non-treated
Method: as §1

Physalis angulata = experiment: Weed control screen: cutleaf groundcherry; format: in vivo; settings: 1.0 lb ai/a, applied approximately 3 weeks after emergence, relative to non-treated
Method: as §1

Murdannia nudiflora = experiment: Weed control screen: doveweed; format: in vivo; settings: 1.0 lb ai/a, applied approximately 3 weeks after emergence, relative to non-treated
Method: as §1

Crotalaria spectabilis = experiment: Weed control screen: showy crotalaria; format: in vivo; settings: 1.0 lb ai/a, applied approximately 3 weeks after emergence, relative to non-treated
Method: as §1

Cyperus iria = experiment: Weed control screen: rice flatsedge; format: in vivo; settings: 1.0 lb ai/a, applied approximately 3 weeks after emergence, relative to non-treated
Method: as §1

[3] = target: T1, recombinant wild-type E. indica PPO1 (Eleusine indica, UniProt A0A6G5XNV7); experiment: In vitro PPO enzyme activity inhibition, wild-type PPO1; format: biochemical
T1 sequence (A0A6G5XNV7 1-529): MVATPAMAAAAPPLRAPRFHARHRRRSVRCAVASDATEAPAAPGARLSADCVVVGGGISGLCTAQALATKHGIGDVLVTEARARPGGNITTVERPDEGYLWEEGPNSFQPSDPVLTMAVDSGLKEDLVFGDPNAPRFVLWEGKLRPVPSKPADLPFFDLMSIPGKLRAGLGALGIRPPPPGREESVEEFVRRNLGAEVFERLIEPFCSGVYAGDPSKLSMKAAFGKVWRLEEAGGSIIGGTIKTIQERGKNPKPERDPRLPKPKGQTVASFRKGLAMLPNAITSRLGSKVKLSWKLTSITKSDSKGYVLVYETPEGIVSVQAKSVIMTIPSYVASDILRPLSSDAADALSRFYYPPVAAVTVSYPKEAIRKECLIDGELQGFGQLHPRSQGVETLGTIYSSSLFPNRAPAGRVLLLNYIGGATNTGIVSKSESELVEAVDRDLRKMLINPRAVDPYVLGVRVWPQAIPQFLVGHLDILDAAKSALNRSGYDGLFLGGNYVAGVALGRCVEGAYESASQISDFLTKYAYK
Text: as §2, with “Six PPO inhibitors, belonging to five different chemical families, were evaluated on the PPO enzyme activity at a concentrations ranging from 5.00×10^−5M to 5.12×10^−12M.” left out

Conyza candensis = experiment: Weed control screen: glyphosate-resistant horseweed; format: in vivo; settings: 1.0 lb ai/a, applied approximately 3 weeks after emergence, relative to non-treated
Method: as §1

[4] = highest herbicide concentration 10^−5 M

In the case of `CC(C)Oc1cc(-n2nc(C(C)(C)C)oc2=O)c(Cl)cc1Cl` [Oxadiazon, oxadiazon], the “Percent control (0 to 100)” value (Senna obtusifolia) is reported as 90%, the “Percent control (0 to 100)” value (Eleusine indica) is reported as 100% and the “Percent control (0 to 100)” value (Jaquemontia tamnifolia) is reported as 90%. The “Percent control (0 to 100)” value (Ipomoea lacunosa) was 100%, the “Percent control (0 to 100)” value (Abutilon theophrasti) was 100% and the “Number of the 21 weeds evaluated controlled at a level greater than or equal to 90%” value ([1]; 1.0 lb ai/a) was 13 weeds. The “Number of the 21 weeds controlled greater than or equivalent to glyphosate” value ([1]; 1.0 lb ai/a each) was 18 weeds, the “Percent control (0 to 100)” value (Albizia julibrissin) was 50% and the “Percent control (0 to 100)” value (Ipomoea hederacea) was 100%. The IC50 [2] was over 10000 nM, the inhibition at 10 µM ([2]; read-out: Variant E. indica PPO1 A212T % inhibition) was 16% and the “Percent control (0 to 100)” value (Amaranthus palmeri) was 75%. For the same compound, the “Percent control (0 to 100)” value (Amaranthus hybridus) was 100%, the “Percent control (0 to 100)” value (Sorghum halapense) was 100% and the “Percent control (0 to 100)” value (Ipomoea coccinea) was 100%. The “Percent control (0 to 100)” value (Sesbania exaltata) was 100%, the “Percent control (0 to 100)” value (Sida spinosa) was 90% and the “Percent control (0 to 100)” value (Physalis angulata) was 70%. For the same compound, the “Percent control (0 to 100)” value (Murdannia nudiflora) was 0%, the “Percent control (0 to 100)” value (Crotalaria spectabilis) was 99% and the “Percent control (0 to 100)” value (Cyperus iria) was 60%. The IC50 [3] was 24.7 nM, the “Wild-type E. indica PPO1 % inhibition” value [3, 4] was over 90% and the inhibition at 10 µM [3, 4] was over 90%. The “Percent control (0 to 100)” value (Conyza candensis) was 30%.
